In US20080160553A1, “Method of preparing heart muscle cells and method of searching for remedy for heart diseases” (Takeda Pharmaceutical Company Limited, priority 2000, published 2008):

How the values were obtained:
heart muscle cells = conditions: by activating Akt; cited from earlier work
[1] = test system: heart muscle cells of rat newborns; assay: Inhibition of serum-removal-induced apoptosis of heart muscle cells, present detection method (serum re-added, about 17 h) with MTT; format: cell-based; conditions: 1000 U/ml hLIF, 4 days serum-free, then 10% serum about 17 h, MTT as coloration substrate
Experimental: (§1) The heart muscle cells obtained by the method of the invention are adjusted to a cell density of 3×10^4 cells/well (96-wells plate) and cultured in serum-free medium such as Medium 199 in a CO2 incubator set at 5% CO2, 37° C. for 4 days, thus inducing apoptosis to reduce the survival rate of the heart muscle cells to 50% or less.
(§2) Serum such as FCS is added at a final concentration of 10% to the culture, which is then cultured for about 17 hours and measured for its dehydrogenase activity (reduction activity) with MTT or WST-8 as the coloration substrate, to determine the number of viable cells.
Using the heart muscle cells of rat newborns obtained by the present method of preparing heart muscle cells as described in Example 1, their apoptosis was induced by removing serum from the culture, and the inhibitory action of recombinant human leukemia inhibitory factor (hLIF, produced by Peprotech) on the apoptosis was detected by the conventional method with MTT as the coloration substrate and by the present method of detecting apoptosis with WST-8 or MTT as the coloration substrate, and the sensitivity of the two methods was compared. […]

[2] = test system: heart muscle cells of rat newborns; assay: Inhibition of serum-removal-induced apoptosis of heart muscle cells, conventional MTT reduction method (no serum re-addition); format: cell-based; conditions: 1000 U/ml hLIF, 4 days serum-free, MTT as coloration substrate
Text: (§3) Using the heart muscle cells of rat newborns obtained by the present method of preparing heart muscle cells as described in Example 1, their apoptosis was induced by removing serum from the culture, and the inhibitory action of recombinant human leukemia inhibitory factor (hLIF, produced by Peprotech) on the apoptosis was detected by the conventional method with MTT as the coloration substrate and by the present method of detecting apoptosis with WST-8 or MTT as the coloration substrate, and the sensitivity of the two methods was compared.
First, the muscle cells obtained in the method of preparing heart muscle cells according to the invention were suspended at a density of 3×10^5 cells/ml in Medium 199 containing 10% fetal calf serum, put onto a 96-wells plate in a volume of 0.1 ml/well, and then cultured for 1 day in a CO2 incubator set at 5% CO2, 37° C. […] In the conventional method, the number of viable cells in the culture was measured directly with MTT as the coloration substrate. In the method of the invention, on the other hand, fetal calf serum was added thereto at a concentration of 10%, and the cells were further cultured for about 17 hours in a CO2 incubator set at 5% CO2, 37° C., and the number of viable cells was determined by using WST-8 or MTT as the coloration substrate.

[3] = test system: heart muscle cells of rat newborns; assay: Inhibition of serum-removal-induced apoptosis of heart muscle cells, present detection method (serum re-added, about 17 h) with WST-8; format: cell-based; conditions: 1000 U/ml hLIF
Experimental: as §1, §2, §3
First, the muscle cells obtained in the method of preparing heart muscle cells according to the invention were suspended at a density of 3×10^5 cells/ml in Medium 199 containing 10% fetal calf serum, put onto a 96-wells plate in a volume of 0.1 ml/well, and then cultured for 1 day in a CO2 incubator set at 5% CO2, 37° C. The plate was stirred with a micromixer (Taiyo Kagaku Kogyo Co., Ltd.) and the medium was exchanged 3 times with serum-free Medium 199, followed by adding 0 to 1000 U/ml hLIF. The culture was incubated for additional 4 days to induce apoptosis. In the conventional method, the number of viable cells in the culture was measured directly with MTT as the coloration substrate. In the method of the invention, on the other hand, fetal calf serum was added thereto at a concentration of 10%, and the cells were further cultured for about 17 hours in a CO2 incubator set at 5% CO2, 37° C., and the number of viable cells was determined by using WST-8 or MTT as the coloration substrate. […]
First, the heart muscle cells obtained in the method described in Example 1 were suspended at a density of 3×10^5 cells/ml in Medium 199 containing 10% fetal bovine serum, and put in a volume of 0.1 ml/well onto each well of 2nd to 11th rows on each of three 96-wells plates. […] The cells were cultured for 4 days to induce apoptosis, and fetal calf serum was added at a concentration of 10%, and the cells were cultured for additional 17 hours in a CO2 incubator set at 5% CO2, 37° C., and then the number of viable cells was counted with WST-8 as the coloration substrate.

Row | Substance | effect on apoptosis of heart muscle cells (heart muscle cells) | increase in absorbance relative to control group [1] | increase in the average absorbance as compared with the control group [2] | increase in average absorbance relative to control group ([3]; 4 days serum-free, then 10% serum about 17 h, WST-8 as coloration substrate) | average absorbance (number of viable cells) ([3]; plate 1, WST-8, control 0.22±0.039) | average absorbance (number of viable cells) ([3]; plate 2, WST-8, control 0.15±0.028) | average absorbance (number of viable cells) ([3]; plate 3, WST-8, control 0.13±0.020)
1 | hIGF-1: recombinant human IGF-1 (hIGF-1, produced by Peprotech) | inhibit apoptosis of heart muscle cells | – | – | – | – | – | –
2 | hLIF: recombinant human leukemia inhibitory factor (hLIF, produced by Peprotech) | – | ~0.1 | ≤ 0.03 | ≥ 0.3 | 0.54±0.055 | 0.45±0.035 | 0.43±0.059
